One data set concerns Erysiphe graminis. Description: Assay B-6: Effect against Erysiphe graminis on barley (powdery mildew); residual protective / systemic activity. The settings on record: 0.02% active substance spray (residual) or 0.002% soil (systemic), variant not stated. In kind it is in vivo. How it is done:
Assay B-6: Effect Against Erysiphe graminis on Barley (Powdery Mildew on Barley) a) Residual Protective Activity […] The infected plants are placed in a greenhouse at 22°. 12 days after infection, the fungal attack is evaluated. b) Systemic Activity […] […] 48 hours later, the plants are dusted with conidia of the fungus. The infected plants are placed in a greenhouse at 22° C. 12 days after infection, the disease incidence is evaluated.

A further data set deals with Venturia inaegualis. Description: Assay B-5: Residual protective activity against Venturia inaegualis on apples (scab on apple). It counts as in vivo. Particulars: Venturia inaegualis on apple seedlings cv. McIntosh; 0.02% active substance, spray. How it is done: Assay B-5: Residual Protective Activity Against Venturia inaegualis on Apples (Scab on Apple) 4 week old apple seedlings cv. McIntosh are treated with the formulated testcompound (0.02% active substance) in a spray chamber. One day after application apple plants are inoculated by spraying a spore suspension (4×10^5 conidia/ml) on the test plants. After an incubation period of 4 days at 21° C. and 95% r. h. the plants are placed for 4 days at 21° C. and 60% r. h. in a greenhouse. After another 4 day incubation period at 21° C. and 95% r. h. the disease incidence is assessed.

Data set [1] concerns Pyrenophora teres (Helminthosporium). Description: Assay B-10: Effect against Pyrenophora teres (Helminthosporium)/barley (net blotch on barley). In kind it is in vivo. The settings on record: Pyrenophora teres on barley cv. Regina, 0.02% active substance, spray; for pest or weed control at 0.02 % strength: 96 h, read-out: B10 activity. The gist of the method:
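One-week-old barley cv. Regina sprayed with formulated compound at 0.02% active substance, then inoculated 2 days later with 3×10^4 conidia/ml. Held 2 days at 20° C/95% r.h., then 2 days at 20° C/60% r.h.; disease incidence scored 4 days after inoculation.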

Another data set relates to Septoria nodorum. Kind of data set: Assay B-12: Effect against Septoria nodorum/wheat (Septoria leaf spot on wheat). It counts as in vivo. The settings on record: Septoria nodorum on wheat cv. Arina, 0.02% active substance, spray; for pest or weed control at 0.02 % strength: Parastagonospora nodorum, 264 h, read-out: B12 activity.
Data set [2] concerns Botrytis cinerea. Kind of data set: Assay B-7: Botrytis cinerea/grape (Botrytis on grapes). In kind it is in vivo. The settings on record: Botrytis cinerea on grape seedlings cv. Gutedel; 0.02% active substance, spray. How it is done:
Assay B-7: Botrytis cinerea/Grape (Botrytis on Grapes) 5 week old grape seedlings cv. Gutedel are treated with the formulated testcompound (0.02% active substance) in a spray chamber. Two days after application grape plants are inoculated by spraying a spore suspension (1×10^6 conidia/ml) on the test plants. After an incubation period of 4 days at 21° C. and 95% r. h. in a greenhouse the disease incidence is assessed.

The test system of data set [3] is Botrytis cinerea. Kind of data set: Assay B-8: Effect against Botrytis cinerea/tomato (Botrytis on tomatoes). It counts as in vivo. The settings on record: Botrytis cinerea on tomato cv. Roter Gnom; 0.02% active substance, spray. How it is done:
Assay B-8: Effect Against Botrytis cinerea/Tomato (Botrytis on Tomatoes) 4 week old tomato plants cv. Roter Gnom are treated with the formulated testcompound 0.02% active substance) in a spray chamber. Two days after application tomato plants are inoculated by spraying a spore suspension (1×10^5 conidia/ml) on the test plants. After an incubation period of 4 days at 20° C. and 95% r. h. in a greenhouse the disease incidence is assessed.

The test system of the next data set is Pyricularia oryzae. It counts as in vivo. Particulars: Pyricularia oryzae on rice cv. Sasanishiki; 0.02% active substance, spray.

`COCC(C)Nc1cc(-c2ccnc(Nc3cccc(Cl)c3)n2)cc(F)n1` (stereo not drawn) [Compound 7]: the B6 activity result in the data set with Erysiphe graminis is recorded as “+ (the activity observed in the corresponding test system is 70% or more)”. Further, the B5 activity entry in the data set with Venturia inaegualis was “+ (the activity observed in the corresponding test system is 70% or more)”. In addition, the B10 activity result in data set [1] is on record as “+ (the activity observed in the corresponding test system is 70% or more)”.
For `OCCNc1cc(-c2ccnc(Nc3cccc(Cl)c3)n2)ccn1` [Compound 37], the B12 activity entry with Septoria nodorum was “+ (the activity observed in the corresponding test system is 70% or more)”. In the data set with Botrytis cinerea [2], the B7 activity entry is recorded as “+ (the activity observed in the corresponding test system is 70% or more)”. For the same molecule, in the data set with Botrytis cinerea [3], the B8 activity result is given as “+ (the activity observed in the corresponding test system is 70% or more)”. The B6 activity entry in the data set with Erysiphe graminis is listed as “+ (the activity observed in the corresponding test system is 70% or more)”. In addition, in the data set on Venturia inaegualis, the B5 activity entry was “+ (the activity observed in the corresponding test system is 70% or more)”. In addition, the B9 activity entry with Pyricularia oryzae is “+ (the activity observed in the corresponding test system is 70% or more)”. For the same molecule, the B10 activity entry in data set [1] was “+ (the activity observed in the corresponding test system is 70% or more)”.
On to `CC(=O)OCC(C)Nc1cc(-c2ccnc(Nc3cccc(Cl)c3)n2)ccn1` (stereo not drawn) [Compound 50], for which the B12 activity entry in the data set on Septoria nodorum is listed as “+ (the activity observed in the corresponding test system is 70% or more)”. In addition, the B7 activity result in the data set on Botrytis cinerea [2] is given as “+ (the activity observed in the corresponding test system is 70% or more)”. The B8 activity result with Botrytis cinerea [3] was “+ (the activity observed in the corresponding test system is 70% or more)”. Moreover, the B6 activity entry in the data set on Erysiphe graminis was “+ (the activity observed in the corresponding test system is 70% or more)”. Further, the B5 activity entry in the data set with Venturia inaegualis is “+ (the activity observed in the corresponding test system is 70% or more)”. Further, in the data set on Pyricularia oryzae, the B9 activity entry is listed as “+ (the activity observed in the corresponding test system is 70% or more)”. Moreover, in data set [1], the B10 activity result is on record as “+ (the activity observed in the corresponding test system is 70% or more)”.
The melting point is the temperature of the solid-liquid transition. In turn, `CN(C)c1cc(-c2ccnc(Nc3cccc(Cl)c3)n2)ccn1` [Compound 59] gave a melting point of 178 to 179 °C. In the data set on Septoria nodorum, the pest or weed control at 0.02 % strength was greater than 70%. Also, in the data set on Erysiphe graminis, the B6 activity result is “+ (the activity observed in the corresponding test system is 70% or more)”. Further, the pest or weed control at 0.02 % strength in data set [1] was greater than 70%.
Regarding `COC(OC)C(C)Nc1cc(-c2ccnc(Nc3cccc(Cl)c3)n2)ccn1` (stereo not drawn) [Compound 65], the B12 activity entry with Septoria nodorum is recorded as “+ (the activity observed in the corresponding test system is 70% or more)”. Moreover, the B7 activity entry with Botrytis cinerea [2] was “+ (the activity observed in the corresponding test system is 70% or more)”. Further, the B8 activity result in the data set with Botrytis cinerea [3] is on record as “+ (the activity observed in the corresponding test system is 70% or more)”. In the data set with Erysiphe graminis, the B6 activity result is reported as “+ (the activity observed in the corresponding test system is 70% or more)”. In addition, the B5 activity result with Venturia inaegualis is “+ (the activity observed in the corresponding test system is 70% or more)”. The B9 activity entry in the data set on Pyricularia oryzae was “+ (the activity observed in the corresponding test system is 70% or more)”. Besides, the B10 activity result in data set [1] was “+ (the activity observed in the corresponding test system is 70% or more)”.
`CC(C)=CCNc1cc(-c2ccnc(Nc3cccc(Cl)c3)n2)ccn1` [Compound 81]: the B12 activity result with Septoria nodorum is recorded as “+ (the activity observed in the corresponding test system is 70% or more)”. For the same molecule, the B8 activity entry with Botrytis cinerea [3] is on record as “+ (the activity observed in the corresponding test system is 70% or more)”. Further, the B6 activity result in the data set on Erysiphe graminis was “+ (the activity observed in the corresponding test system is 70% or more)”. Further, the B10 activity result in data set [1] is “+ (the activity observed in the corresponding test system is 70% or more)”.
For the molecule `FC(F)(F)CNc1cc(-c2ccnc(Nc3cccc(Cl)c3)n2)ccn1` [Compound 103], the melting point was 222 to 223 °C. Besides, the pest or weed control at 0.02 % strength in the data set with Septoria nodorum is greater than 70%. For the same molecule, in the data set on Erysiphe graminis, the B6 activity result is “+ (the activity observed in the corresponding test system is 70% or more)”. The pest or weed control at 0.02 % strength in data set [1] is greater than 70%.

(Values after patent publication US7109197B2, “N-phenyl-4-(4-pyridyl)-2-pyrimidineamine derivatives” (Syngenta Crop Protection, Inc., priority 2000, dated 2006).)
